Laboratory results reported in patent US20200223889A1, “Bicyclic Compounds Capable of Binding to Melanocortin 4 Receptor” (Novo Nordisk A/S, priority 2017, published 2020).
Like-named read-outs stand apart in the source and are kept apart here. Starred links: 1 amine or outer side, 2 acyl side, 3 side chain; linkers in the order of their positions; H or OH if unused. Positions of bridges follow the written chain, without caps; N, C: chain ends. Non-standard residues stand in square brackets, D forms with d. Residues, ends and D or L forms follow the SMILES beside them. Hyp = O=C(O)[C@@H]1C[C@@H](O)CN1; Cit = NC(=O)NCCC[C@H](N)C(=O)O; d(hCys) = N[C@H](CCS)C(=O)O; Api = NC1(C(=O)O)CCNCC1; X1 = C(CN[*:2])CS[*:1]; Aib = CC(C)(N)C(=O)O; Sar = CNCC(=O)O

Target: T1, human MC4R (Homo sapiens, UniProt P32245)
T1 construct: expressed in transfected cells
Experiment: Functional cAMP assay (CisBio HTRF) in BHK cells expressing human MC4R
Assay type: cell-based
Details: for MC1R/MC4R cAMP EC50 ratio: MC1R cAMP EC50 divided by MC4R cAMP EC50
Experimental: In order to assess the potency of the compounds on human MC1R and human MC4R cAMP signalling was measured.
cAMP induction was measured by c-AMPdynamic2 assay, HTRF 62AM4PEC system from CisBio for the human MC1R and human MC4R according to the protocol provided by the vendor. BHK cells expressing the human MC1 or MC4 receptor were generated by stable transfection with expression vectors encoding the cDNA of either MC1R or MC4R.
In details; 25 μl compound—or standard solution were added in the respective wells. Compound was reconstituted in buffer (DMEM w/o phenol red, 10 mM
Hepes, lx Glutamine, 0.1% OV-albumin1, 1 mM IBMX) and serially diluted starting at 2 μM, 10-fold seven times. Dilutions were carried out in the same aforementioned buffer to the desired working concentration ranges (2× higher than the final concentration). 25 μl cell solution was then added and allowed to incubate for 30 min while lightly shaking, at 25° C. […] The provided components for the assay were reconstituted according to the CisBio assay protocol “3.1 supplied reagents and preparation procedure” in MilliQ purification system H2O and diluted 1:20 in lysis buffer. 25 μl cAMP-d2 and 25 μl Cryptate conjugate were added to all wells.
Plates were centrifuged at 1500 rpm for 30 sec and incubated for 1 h, lightly shaking, at 25° C. in a hotel stacker. The plates were read on Mithras LB 940 provided by Berthold Technologies The data were analysed by non-linear regression analysis of binding curves, using the Windows™ program GraphPad™ Prism (GraphPad Software, USA).
The latter is used when no full curve can be obtained in the concentration ranges indicated above.

[1] = BHK cells expressing human MC4R, '>' = highest dose used with no response, read-out: MC4R cAMP EC50

T1 sequence (P32245 whole entry): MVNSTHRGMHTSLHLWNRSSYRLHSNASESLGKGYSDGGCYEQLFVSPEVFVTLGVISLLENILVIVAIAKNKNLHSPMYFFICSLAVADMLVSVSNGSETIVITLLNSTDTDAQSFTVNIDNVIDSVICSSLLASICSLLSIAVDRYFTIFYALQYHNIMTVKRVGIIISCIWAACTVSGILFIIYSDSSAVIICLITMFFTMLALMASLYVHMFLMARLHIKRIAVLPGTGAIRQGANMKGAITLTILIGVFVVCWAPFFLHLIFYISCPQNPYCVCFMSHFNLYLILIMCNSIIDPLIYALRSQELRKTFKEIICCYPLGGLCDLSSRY

In the case of `N=C(N)NCCC[C@@H]1NC(=O)[C@@H](Cc2ccccc2)NC(=O)[C@H](Cc2c[nH]cn2)NC(=O)[C@@H]2CSSC[C@H](NC(=O)[C@H](CCC(=O)O)NC(=O)[C@H](Cc3c[nH]c4ccccc34)NC1=O)C(=O)N[C@@H](Cc1c[nH]cn1)C(=O)N[C@H](Cc1ccccc1)C(=O)N[C@@H](CCCNC(=N)N)C(=O)N[C@@H](Cc1c[nH]c3ccccc13)C(=O)N[C@@H](CCC(=O)O)C(=O)N2` [Chem. 1, c[c[Cys-His-D-Phe-Arg-Trp-Glu-Cys]- His-D-Phe-Arg-Trp-Glu]] (cyclo(CH[dF]RWECH[dF]RWE); disulfide 1-7), the “MC1R/MC4R cAMP EC50 ratio” value is reported as 13.

For `CC(=O)N[C@@H](Cc1c[nH]cn1)C(=O)N[C@H](Cc1ccccc1)C(=O)N[C@@H](CCCNC(=N)N)C(=O)N[C@@H](Cc1c[nH]c2ccccc12)C(=O)NCC(=O)N[C@@H]1CCSSCCCNC(=O)CNC(=O)[C@H](Cc2c[nH]c3ccccc23)NC(=O)[C@H](CCCNC(=N)N)NC(=O)[C@@H](Cc2ccccc2)NC(=O)[C@H](Cc2c[nH]cn2)NC1=O` [Chem. 4, c[c[Cys-His-D-Phe-Arg-Trp-Gly-Cys]- His-D-Phe-Arg-Trp-Gly]] (Ac-H[dF]RWG[d(hCys)]H[dF]RWG; linker 6-C via X1), the EC50 [1] was 0.09 nM and the “MC1R/MC4R cAMP EC50 ratio” value was 7.

With `CC(=O)N[C@@H](Cc1c[nH]cn1)C(=O)N[C@H](Cc1ccccc1)C(=O)N[C@@H](CCCNC(=N)N)C(=O)N[C@@H](Cc1c[nH]c2ccccc12)C(=O)N[C@@H](C)C(=O)N[C@@H]1CCSSCCCNC(=O)[C@H](C)NC(=O)[C@H](Cc2c[nH]c3ccccc23)NC(=O)[C@H](CCCNC(=N)N)NC(=O)[C@@H](Cc2ccccc2)NC(=O)[C@H](Cc2c[nH]cn2)NC1=O` [Chem. 5, c[c[Cys-His-D-Phe-Arg-Trp-Ala-Cys]- His-D-Phe-Arg-Trp-Ala]] (Ac-H[dF]RWA[d(hCys)]H[dF]RWA; linker 6-C via X1) the EC50 [1] was 0.21 nM and the “MC1R/MC4R cAMP EC50 ratio” value was 31.

In the case of `CC1(C)NC(=O)[C@@H]2CSSC[C@H](NC(=O)[C@H](Cc3c[nH]c4ccccc34)NC(=O)[C@H](CCCNC(=N)N)NC(=O)[C@@H](Cc3ccccc3)NC(=O)[C@H](Cc3c[nH]cn3)NC1=O)C(=O)NC(C)(C)C(=O)N[C@@H](Cc1c[nH]cn1)C(=O)N[C@H](Cc1ccccc1)C(=O)N[C@@H](CCCNC(=N)N)C(=O)N[C@@H](Cc1c[nH]c3ccccc13)C(=O)N2` [Chem. 9, c[c[Cys-Aib-His-D-Phe-Arg-Trp-Cys]- Aib-His-D-Phe-Arg-Trp]] (cyclo([Aib]H[dF]RWC[Aib]H[dF]RWC); disulfide 6-12), the “MC1R/MC4R cAMP EC50 ratio” value is reported as 201.

`C[C@@H]1NC(=O)[C@@H]2CSSC[C@H](NC(=O)[C@H](Cc3c[nH]c4ccccc34)NC(=O)[C@H](CCN)NC(=O)[C@@H](Cc3ccccc3)NC(=O)[C@H](Cc3c[nH]cn3)NC1=O)C(=O)N[C@@H](C)C(=O)N[C@@H](Cc1c[nH]cn1)C(=O)N[C@H](Cc1ccccc1)C(=O)N[C@@H](CCN)C(=O)N[C@@H](Cc1c[nH]c3ccccc13)C(=O)N2` [Chem. 17, c[c[Cys-Ala-His-D-Phe-Dab-Trp-Cys]- Ala-His-D-Phe-Dab-Trp]] was tested, and the “MC1R/MC4R cAMP EC50 ratio” value was 288.

With `C[C@@H]1NC(=O)[C@@H]2CSSC[C@H](NC(=O)[C@H](Cc3c[nH]c4ccccc34)NC(=O)[C@H](Cc3c[nH]cn3)NC(=O)[C@@H](Cc3ccccc3)NC(=O)[C@H](Cc3c[nH]cn3)NC1=O)C(=O)N[C@@H](C)C(=O)N[C@@H](Cc1c[nH]cn1)C(=O)N[C@H](Cc1ccccc1)C(=O)N[C@@H](Cc1c[nH]cn1)C(=O)N[C@@H](Cc1c[nH]c3ccccc13)C(=O)N2` [Chem. 24, c[c[Cys-Ala-His-D-Phe-His-Trp-Cys]- Ala-His-D-Phe-His-Trp]] (cyclo(AH[dF]HWCAH[dF]HWC); disulfide 6-12) the EC50 [1] was 0.49 nM and the “MC1R/MC4R cAMP EC50 ratio” value was 364.

`CN1CC(=O)N[C@@H](Cc2c[nH]cn2)C(=O)N[C@H](Cc2ccccc2)C(=O)N[C@@H](CCCNC(=N)N)C(=O)N[C@@H](Cc2c[nH]c3ccccc23)C(=O)N[C@H]2CSSC[C@H](NC(=O)[C@H](Cc3c[nH]c4ccccc34)NC(=O)[C@H](CCCNC(=N)N)NC(=O)[C@@H](Cc3ccccc3)NC(=O)[C@H](Cc3c[nH]cn3)NC(=O)CN(C)C2=O)C1=O` [Chem. 31, c[c[Cys-Sar-His-D-Phe-Arg-Trp-Cys]- Sar-His-D-Phe-Arg-Trp]] (cyclo(C[Sar]H[dF]RWC[Sar]H[dF]RW); disulfide 1-7) was tested, and the EC50 [1] was 0.29 nM and the “MC1R/MC4R cAMP EC50 ratio” value was 27.

With `N=C(N)NCCC[C@@H]1NC(=O)[C@@H](Cc2ccccc2)NC(=O)[C@H](Cc2c[nH]cn2)NC(=O)[C@@H]2C[C@@H](O)CN2C(=O)[C@@H]2CSSC[C@H](NC(=O)[C@H](Cc3c[nH]c4ccccc34)NC1=O)C(=O)N1C[C@H](O)C[C@H]1C(=O)N[C@@H](Cc1c[nH]cn1)C(=O)N[C@H](Cc1ccccc1)C(=O)N[C@@H](CCCNC(=N)N)C(=O)N[C@@H](Cc1c[nH]c3ccccc13)C(=O)N2` [Chem. 32, c[c[Cys-Hyp-His-D-Phe-Arg-Trp- Cys]-Hyp-His-D-Phe-Arg-Trp]] (cyclo(C[Hyp]H[dF]RWC[Hyp]H[dF]RW); disulfide 1-7) the EC50 was 0.12 nM and the “MC1R/MC4R cAMP EC50 ratio” value was 17.

For `C[C@@H]1NC(=O)[C@@H]2CSSC[C@H](NC(=O)[C@H](Cc3c[nH]c4ccccc34)NC(=O)[C@H](CCCNC(=N)N)N(C)C(=O)[C@@H](Cc3ccccc3)NC(=O)[C@H](Cc3c[nH]cn3)NC1=O)C(=O)N[C@@H](C)C(=O)N[C@@H](Cc1c[nH]cn1)C(=O)N[C@H](Cc1ccccc1)C(=O)N(C)[C@@H](CCCNC(=N)N)C(=O)N[C@@H](Cc1c[nH]c3ccccc13)C(=O)N2` [Chem. 37, c[c[Cys-Ala-His-D-Phe-N-MeArg-Trp- Cys]-Ala-His-D-Phe-N-MeArg-Trp]], the “MC1R/MC4R cAMP EC50 ratio” value was 8.

`CC1(C)NC(=O)[C@@H]2CSSC[C@H](NC(=O)[C@H](Cc3c[nH]c4ccccc34)NC(=O)[C@H](CCCNC(=N)N)NC(=O)[C@@H](Cc3ccccc3)NC(=O)[C@@H]3CCCN3C1=O)C(=O)NC(C)(C)C(=O)N1CCC[C@H]1C(=O)N[C@H](Cc1ccccc1)C(=O)N[C@@H](CCCNC(=N)N)C(=O)N[C@@H](Cc1c[nH]c3ccccc13)C(=O)N2` [Chem. 39, c[c[Cys-Aib-Pro-D-Phe-Arg-Trp-Cys]- Aib-Pro-D-Phe-Arg-Trp]] (cyclo([Aib]P[dF]RWC[Aib]P[dF]RWC); disulfide 6-12) was tested, and the “MC1R/MC4R cAMP EC50 ratio” value was 37.

`O=C1N[C@H]2CSSC[C@H](NC(=O)[C@H](Cc3c[nH]c4ccccc34)NC(=O)[C@H](Cc3c[nH]cn3)NC(=O)[C@@H](Cc3ccccc3)NC(=O)[C@H](Cc3c[nH]cn3)NC(=O)C3(CCNCC3)NC2=O)C(=O)NC2(CCNCC2)C(=O)N[C@@H](Cc2c[nH]cn2)C(=O)N[C@H](Cc2ccccc2)C(=O)N[C@@H](Cc2c[nH]cn2)C(=O)N[C@H]1Cc1c[nH]c2ccccc12` [Chem. 50, c[c[Cys-ACP-His-D-Phe-His-Trp-Cys]- ACP-His-D-Phe-His-Trp]] (cyclo([Api]H[dF]HWC[Api]H[dF]HWC); disulfide 6-12) was tested, and the “MC1R/MC4R cAMP EC50 ratio” value was 56.

In the case of `N=C(N)NCCC[C@@H]1NC(=O)[C@@H](Cc2ccccc2)NC(=O)[C@H](Cc2c[nH]cn2)NC(=O)[C@H](CCC(=O)O)NC(=O)[C@@H]2CSSC[C@H](NC(=O)[C@H](Cc3c[nH]c4ccccc34)NC1=O)C(=O)N[C@@H](CCC(=O)O)C(=O)N[C@@H](Cc1c[nH]cn1)C(=O)N[C@H](Cc1ccccc1)C(=O)N[C@@H](CCCNC(=N)N)C(=O)N[C@@H](Cc1c[nH]c3ccccc13)C(=O)N2` [Chem. 51, c[c[Cys-Glu-His-D-Phe-Arg-Trp-Cys]- Glu-His-D-Phe-Arg-Trp]] (cyclo(CEH[dF]RWCEH[dF]RW); disulfide 1-7), the EC50 [1] is reported as 0.2 nM and the “MC1R/MC4R cAMP EC50 ratio” value is reported as 13.

For `NCCCC[C@@H]1NC(=O)[C@@H]2CSSC[C@H](NC(=O)[C@H](Cc3c[nH]c4ccccc34)NC(=O)[C@H](CCCNC(N)=O)NC(=O)[C@@H](Cc3ccccc3)NC(=O)[C@H](Cc3c[nH]cn3)NC1=O)C(=O)N[C@@H](CCCCN)C(=O)N[C@@H](Cc1c[nH]cn1)C(=O)N[C@H](Cc1ccccc1)C(=O)N[C@@H](CCCNC(N)=O)C(=O)N[C@@H](Cc1c[nH]c3ccccc13)C(=O)N2` [Chem. 55, c[c[Cys-Lys-His-D-Phe-Cit-Trp-Cys]- Lys-His-D-Phe-Cit-Trp]] (cyclo(CKH[dF][Cit]WCKH[dF][Cit]W); disulfide 1-7), the EC50 [1] was 0.1 nM and the “MC1R/MC4R cAMP EC50 ratio” value was 41.

`N=C(N)NCCC[C@@H]1NC(=O)[C@H](Cc2c[nH]c3ccccc23)NC(=O)[C@H](CCCNC(=N)N)NC(=O)[C@@H](Cc2ccccc2)NC(=O)[C@H](Cc2c[nH]cn2)NC(=O)[C@@H]2CSSC[C@H](NC1=O)C(=O)N[C@@H](Cc1c[nH]cn1)C(=O)N[C@H](Cc1ccccc1)C(=O)N[C@@H](CCCNC(=N)N)C(=O)N[C@@H](Cc1c[nH]c3ccccc13)C(=O)N[C@@H](CCCNC(=N)N)C(=O)N2` [Chem. 68, c[c[Cys-His-D-Phe-Arg-Trp-Arg-Cys]- His-D-Phe-Arg-Trp-Arg]] (cyclo(CH[dF]RWRCH[dF]RWR); disulfide 1-7) was tested, and the “MC1R/MC4R cAMP EC50 ratio” value was 1.
